Source: article PMC12446476 (Nature Communications, 2025)
Converted amounts (≈) assume the structure as drawn. “And” between values parts separate entries of the source, which are not always exact repeats. Equal values may be shown once. Read-outs that look alike come from different tables or passages of the source.

What was measured:
N. gonorrhoeae = assay: MIC determination, agar dilution (CLSI); type: cell-based, Neisseria gonorrhoeae
Source text: The 2024 WHO N. gonorrhoeae reference strains were used for quality control. Only whole MIC doubling dilutions are reported. Clinical breakpoints or the epidemiological cutoff (ECOFF, to indicate azithromycin resistance) from EUCAST (v14.0, https://www.eucast.org/clinical_breakpoints) were used to classify isolates as antimicrobial susceptible or resistant. […] Two times the standard inoculum defined by CLSI was used to establish consistent growth in untreated control samples for some strains. In vitro time-kill assays were performed according to CLSI guidelines[65] using Columbia Broth (BD Difco) supplemented with 1% IsoVitaleX Enrichment (BD). Viable bacterial counts were generated by plating 10-fold serially diluted samples on GC agar plates containing 1% IsoVitaleX Enrichment (BD).

[1] = tested on: intracellular N. gonorrhoeae; assay: Intracellular killing in HeLa229 cells; type: cell-based, Neisseria gonorrhoeae; conditions: dilution 0, replicates 1-3, counts 1-2
Method: Intracellular killing was assessed within HeLa229 cells (European Collection of Authenticated Cell Cultures, London, UK) that were seeded at ~3 × 10^5 cells/mL and grown to 70–80% confluence in RPMI-glutamine media supplemented with 10% (v/v) heat-inactivated fetal bovine serum (FBS, Gibco, MA, USA). Cells were incubated at 37 °C with 5% CO2 for 24 h, then washed with serum-free RPMI-1640 prior to infection. N. gonorrhoeae was scraped from agar plates and resuspended in Dulbecco’s Phosphate Buffered Saline (DPBS, Sigma-Aldrich), pelleted, then resuspended in RPMI with 2% FBS. Bacterial suspensions were used to infect HeLa229 cells at a multiplicity of infection of 100:1. Plates were briefly centrifuged (500 × g for 5 min), then incubated for one hour. This incubation and all subsequent incubations were performed at 37 °C with 5% CO2. Non-adherent cells were removed by washing with serum-free RPMI, and the remaining extracellular bacteria were killed via resuspension in RPMI-glutamine supplemented with 2% FBS and 200 μg/mL gentamycin and incubation for one hour. […] Azithromycin-treated samples were included for control/comparison. […] Samples were diluted and plated onto chocolate II agar for viable bacteria quantification. Intracellular killing assays were performed at Microbiologics, Kalamazoo, MI, USA, using a method adapted from previous studies[68],[69].

[2] = tested on: Salmonella typhimurium (TA1535, TA1537, TA98 and TA100); type: cell-based
Method: (§1) Ames assays were performed using four strains of Salmonella typhimurium (TA1535, TA1537, TA98 and TA100) and a single strain of E. coli (WRP2 uvrA) in the presence and absence of S9 tissue homogenate. Dose levels (µg/plate) up to 4000 were assessed for WP2 uvrA and TA98, 500 for TA1535, 250 for TA1537 and 62.5 for TA100.

E. coli WP2 uvrA = assay: Ames assay, E. coli strain; type: cell-based; conditions: with S9, positive control 1, 2 or 20 µg/plate
Method: as §1

[3] = screening panel N. gonorrhoeae isolate A
[4] = screening panel N. gonorrhoeae isolate B
[5] = screening panel N. gonorrhoeae isolate C
[6] = screening panel N. gonorrhoeae isolate D
[7] = screening panel N. gonorrhoeae isolate E
[8] = screening panel N. gonorrhoeae isolate F
[9] = screening panel N. gonorrhoeae isolate G
[10] = screening panel N. gonorrhoeae isolate H
[11] = screening panel N. gonorrhoeae isolate I
[12] = screening panel N. gonorrhoeae isolate J
[13] = screening panel N. gonorrhoeae isolate K
[14] = screening panel N. gonorrhoeae isolate L
[15] = screening panel N. gonorrhoeae isolate M
[16] = screening panel N. gonorrhoeae isolate N
[17] = TA1537, without S9, positive control 50 µg/plate
[18] = TA100, without S9, positive control 1 µg/plate
[19] = TA1535, without S9, positive control 1 µg/plate
[20] = TA98, with S9, positive control 1, 2 or 20 µg/plate
[21] = TA100, with S9, positive control 1, 2 or 20 µg/plate
[22] = TA1535, with S9, positive control 1, 2 or 20 µg/plate
[23] = TA1537, with S9, positive control 1, 2 or 20 µg/plate
[24] = TA98, without S9, positive control 2 µg/plate

SMILES | Minimum inhibitory concentration (N. gonorrhoeae; [3]) | Minimum inhibitory concentration (N. gonorrhoeae; [4]) | Minimum inhibitory concentration (N. gonorrhoeae; [5]) | Minimum inhibitory concentration (N. gonorrhoeae; [6]) | Minimum inhibitory concentration (N. gonorrhoeae; [7]) | Minimum inhibitory concentration (N. gonorrhoeae; [8]) | Minimum inhibitory concentration (N. gonorrhoeae; [9]) | Minimum inhibitory concentration (N. gonorrhoeae; [10]) | Minimum inhibitory concentration (N. gonorrhoeae; [11]) | Minimum inhibitory concentration (N. gonorrhoeae; [12]) | Minimum inhibitory concentration (N. gonorrhoeae; [13]) | Minimum inhibitory concentration (N. gonorrhoeae; [14]) | Minimum inhibitory concentration (N. gonorrhoeae; [15]) | Minimum inhibitory concentration (N. gonorrhoeae; [16]) | further results
Cc1c(CN(C)C(=O)/C=C/c2cnc3c(c2)N[C@@H](C)[C@@H](O)C(=O)N3)oc2ccccc12 [Compound 9] | 2 µg/mL (≈ 4.76 µM) | 1 µg/mL (≈ 2.38 µM) | 1 µg/mL (≈ 2.38 µM) | 1 µg/mL (≈ 2.38 µM) | ≤0.5 µg/mL | 2 µg/mL (≈ 4.76 µM) | 2 µg/mL (≈ 4.76 µM) | 2 µg/mL (≈ 4.76 µM) | 1 µg/mL (≈ 2.38 µM) | 1 µg/mL (≈ 2.38 µM) | 2 µg/mL (≈ 4.76 µM) | 1 µg/mL (≈ 2.38 µM) | 1 µg/mL (≈ 2.38 µM) | 1 µg/mL (≈ 2.38 µM) | –
CC[C@H]1OC(=O)[C@H](C)[C@@H](O[C@H]2C[C@@](C)(OC)[C@@H](O)[C@H](C)O2)[C@H](C)[C@@H](O[C@@H]2O[C@H](C)C[C@H](N(C)C)[C@H]2O)[C@](C)(O)C[C@@H](C)CN(C)[C@H](C)[C@@H](O)[C@]1(C)O [Azithryomycin] | – | – | – | – | – | – | – | – | – | – | – | – | – | – | Colony forming units (CFU) of N. gonorrhoeae internalised in HeLa229 cells, colony count ([1]; isolate ATCC 49226, 3 hr, 2X MIC): 19 CFU (2×) and 22 CFU and 27 CFU and 29 CFU and 32 CFU; Colony forming units (CFU) of N. gonorrhoeae internalised in HeLa229 cells, colony count ([1]; isolate ATCC 49226, 3 hr, 4X MIC): 28 CFU and 29 CFU and 24 CFU (2×) and 32 CFU and 22 CFU; Colony forming units (CFU) of N. gonorrhoeae internalised in HeLa229 cells, colony count ([1]; isolate ATCC 49226, 3 hr, 8X MIC): 20 CFU and 26 CFU and 27 CFU and 18 CFU and 28 CFU and 17 CFU; Colony forming units (CFU) of N. gonorrhoeae internalised in HeLa229 cells, colony count ([1]; isolate ATCC 49226, 6 hr, 2X MIC): 1 CFU (3×) and 3 CFU and 2 CFU (2×); Colony forming units (CFU) of N. gonorrhoeae internalised in HeLa229 cells, colony count ([1]; isolate ATCC 49226, 6 hr, 4X MIC): 0 CFU (2×) and 1 CFU and 3 CFU (2×) and 5 CFU; Colony forming units (CFU) of N. gonorrhoeae internalised in HeLa229 cells, colony count ([1]; isolate ATCC 49226, 6 hr, 8X MIC): 1 CFU (3×) and 2 CFU (3×); Colony forming units (CFU) of N. gonorrhoeae internalised in HeLa229 cells, colony count ([1]; isolate ATCC 49226, 10 hr, 2X MIC): 0 CFU; Colony forming units (CFU) of N. gonorrhoeae internalised in HeLa229 cells, colony count ([1]; isolate ATCC 49226, 10 hr, 4X MIC): 0 CFU; Colony forming units (CFU) of N. gonorrhoeae internalised in HeLa229 cells, colony count ([1]; isolate ATCC 49226, 10 hr, 8X MIC): 0 CFU; Colony forming units (CFU) of N. gonorrhoeae internalised in HeLa229 cells, colony count ([1]; isolate ATCC 49226, 24 hr, 2X MIC): 0 CFU; Colony forming units (CFU) of N. gonorrhoeae internalised in HeLa229 cells, colony count ([1]; isolate ATCC 49226, 24 hr, 4X MIC): 0 CFU; Colony forming units (CFU) of N. gonorrhoeae internalised in HeLa229 cells, colony count ([1]; isolate ATCC 49226, 24 hr, 8X MIC): 0 CFU; Colony forming units (CFU) of N. gonorrhoeae internalised in HeLa229 cells, colony count ([1]; isolate NCTC 13820, 3 hr, 2X MIC): 12 CFU and 15 CFU and 33 CFU and 32 CFU and 27 CFU and 29 CFU; Colony forming units (CFU) of N. gonorrhoeae internalised in HeLa229 cells, colony count ([1]; isolate NCTC 13820, 3 hr, 4X MIC): 21 CFU and 16 CFU and 33 CFU and 30 CFU and 20 CFU and 27 CFU; Colony forming units (CFU) of N. gonorrhoeae internalised in HeLa229 cells, colony count ([1]; isolate NCTC 13820, 3 hr, 8X MIC): 20 CFU and 13 CFU and 26 CFU and 30 CFU (2×) and 21 CFU; Colony forming units (CFU) of N. gonorrhoeae internalised in HeLa229 cells, colony count ([1]; isolate NCTC 13820, 6 hr, 2X MIC): 0 CFU (2×) and 1 CFU (2×) and 3 CFU (2×); Colony forming units (CFU) of N. gonorrhoeae internalised in HeLa229 cells, colony count ([1]; isolate NCTC 13820, 6 hr, 4X MIC): 0 CFU (2×) and 1 CFU and 3 CFU
Nc1c2ccccc2nc2ccccc12 [9-Aminoacridine, reference compound] | – | – | – | – | – | – | – | – | – | – | – | – | – | – | Ames bacterial mutation assessment, Mean [2, 17]: 142; Colony count [2, 17]: 128 and 153 and 146
Cc1oc2ccccc2c1CN(C)C(=O)/C=C/c1cnc2c(c1)NCCC(=O)N2 [Compound 5] | 1 µg/mL (≈ 2.56 µM) | 1 µg/mL (≈ 2.56 µM) | 1 µg/mL (≈ 2.56 µM) | 1 µg/mL (≈ 2.56 µM) | 0.5 µg/mL (≈ 1.28 µM) | 2 µg/mL (≈ 5.12 µM) | 2 µg/mL (≈ 5.12 µM) | 2 µg/mL (≈ 5.12 µM) | 0.5 µg/mL (≈ 1.28 µM) | 1 µg/mL (≈ 2.56 µM) | 2 µg/mL (≈ 5.12 µM) | 1 µg/mL (≈ 2.56 µM) | 1 µg/mL (≈ 2.56 µM) | 0.5 µg/mL (≈ 1.28 µM) | –
[N-]=[N+]=[N-].[Na+] [Sodium azide, reference compound] | – | – | – | – | – | – | – | – | – | – | – | – | – | – | Ames bacterial mutation assessment, Mean [2, 18]: 555; Colony count [2, 18]: 508 and 554 and 602; Ames bacterial mutation assessment, Mean [2, 19]: 433; Colony count [2, 19]: 428 and 408 and 464
Nc1ccc2cc3ccccc3cc2c1 [2-Aminoanthracene, reference compound] | – | – | – | – | – | – | – | – | – | – | – | – | – | – | Ames bacterial mutation assessment, Mean [2, 20]: 515; Colony count [2, 20]: 486 and 532 and 526; Ames bacterial mutation assessment, Mean [2, 21]: 1256; Colony count [2, 21]: 1316 and 1188 and 1256; Ames bacterial mutation assessment, Mean [2, 22]: 104; Colony count [2, 22]: 93 and 104 and 116; Ames bacterial mutation assessment, Mean [2, 23]: 95; Colony count [2, 23]: 90 and 94 and 102; Ames bacterial mutation assessment, Mean (E. coli WP2 uvrA): 187; Colony count (E. coli WP2 uvrA): 181 and 184 and 195
O=C1CCNc2cc(/C=C/C(=O)N3CCC=C(c4ccccc4)CC3)cnc2N1 [Compound 4] | 4 µg/mL (≈ 10.3 µM) | 2 µg/mL (≈ 5.15 µM) | 2 µg/mL (≈ 5.15 µM) | 2 µg/mL (≈ 5.15 µM) | 1 µg/mL (≈ 2.57 µM) | 4 µg/mL (≈ 10.3 µM) | 4 µg/mL (≈ 10.3 µM) | 4 µg/mL (≈ 10.3 µM) | 2 µg/mL (≈ 5.15 µM) | 2 µg/mL (≈ 5.15 µM) | 4 µg/mL (≈ 10.3 µM) | 2 µg/mL (≈ 5.15 µM) | 2 µg/mL (≈ 5.15 µM) | 1 µg/mL (≈ 2.57 µM) | –
O=C1CCNc2cc(C=CC(=O)N3CC4C=C(c5ccccc5)CC4C3)cnc2N1 (stereo not shown) [Compound 3] | 4 µg/mL (≈ 9.99 µM) | 2 µg/mL (≈ 4.99 µM) | 1 µg/mL (≈ 2.5 µM) | 2 µg/mL (≈ 4.99 µM) | 1 µg/mL (≈ 2.5 µM) | 4 µg/mL (≈ 9.99 µM) | 4 µg/mL (≈ 9.99 µM) | 4 µg/mL (≈ 9.99 µM) | 2 µg/mL (≈ 4.99 µM) | 2 µg/mL (≈ 4.99 µM) | >8 µg/mL | 2 µg/mL (≈ 4.99 µM) | 2 µg/mL (≈ 4.99 µM) | 1 µg/mL (≈ 2.5 µM) | –
O=[N+]([O-])c1ccc2c(c1)Cc1ccccc1-2 [2-Nitrofluorene, reference compound] | – | – | – | – | – | – | – | – | – | – | – | – | – | – | Ames bacterial mutation assessment, Mean [2, 24]: 173; Colony count [2, 24]: 177 and 172 and 169
